From patent US11726079B2, “Lighting systems and methods of using lighting systems for in vitro potency assay for Photofrin” (Concordia Laboratories, Inc., priority 2012, dated 2023)
Where “and” joins values, the source holds several entries; their conditions need not be identical. Equal values may be shown once. Marks after values point to notes of the source that are not given here.

System: A549 human lung carcinoma cells
Assay: In vitro potency assay for Photofrin®: A549 cells, 4 h drug absorption, wash, 10 min irradiation at 400-650 nm, 24 h, XTT viability, 4PL EC50
Type: cell-based
Parameters: key to EC50-XTT / EC50 STD / EC50 Test: EC50 as Photofrin concentration in μg/mL (4PL inflection point)
Settings: for EC50 STD / EC50 Test: in µg/mL; for EC50 Test / EC50 Test, Mean: Test (35 μg/mL high test drug concentration)
Method: Cell passaging of A549 cells is performed using fixed seeding densities to reduce assay variation resulting from cell culture conditions. […] Working in very low light conditions, Photofrin® is reconstituted in normal saline to 2.5 mg/mL and diluted further in culture medium at twice the desired final assay concentration, typically 140 μg/mL. A series of two-fold dilutions were then prepared from the 140 μg/mL solution and the diluted drug was added to the cells at 1:1 (v/v) according to the diagram shown in FIG. 11.
[…] The plate is then removed from the incubator, the drug is aspirated, the wells are washed with Dulbecco's phosphate buffered saline (DPBS) and fresh, pre-warmed medium is added to the wells. […] […] The wells covered with foil strips are important controls for the activity of Photofrin® in the absence of irradiation and the effect of light on the cells in the absence of drug.
The optical absorbance of the wells in column 1 (high drug concentration, no cells) is evaluated for absorption at 450 nm to ensure that the drug is not interfering with the XTT assay. The percent viability of each of the wells in columns 2-9 and 11 is calculated relative to the mean value of column 10 (cell control, no drug, no light). For each dose response obtained, a four parameter logistic (4PL) nonlinear regression analysis is performed of the percent viability versus the log-Photofrin® concentration. The point of inflection of the regression curve (C value) is defined as the EC50 and used in the calculation of relative potency. Curve fitting and calculation of the EC50 is performed with Softmax v5.4.2 (Molecular Devices, Inc.) or Prism v.5.04 (GraphPad, Software Inc.) software. The mean percent viability of columns 9 and 11 is also calculated.
• 1. Materials and Reagents • 1.1. A549 Human Lung Carcinoma (ATCC—Cat. No.: CCL-185) • 1.2. 25 cm^2 Flasks (Corning—Cat. No.: 431463, or equivalent) • 1.3. 75 cm^2 Flasks (Corning—Cat. No.: 431464, or equivalent) • 1.4. 50 mL tubes (Fisher Scientific—Cat. No. 17-512F, or equivalent) • 1.5. Hemacytometer • 1.6. RPMI-1640 (+) phenol red (Lonza—Cat. No.: 12-167F, or equivalent) • 1.7. HI-FBS (Gibco—Life Technologies—Cat No.: 10082-147, or equivalent) • 1.8. 200 mM L-Glutamine (Lonza—Cat. No.: 17-605E, or equivalent) • 1.9. 0.25% Trypsin-EDTA (Gibco—Cat. No.: 25200-056, or equivalent) • 2. Instruments • 2.1. Forma Scientific centrifuge with swinging bucket rotor (Model 5682, or equivalent) • 2.2. Water bath set at 37° C. • 2.3. […] Prepared Reagents • 3.1. RPMI-1640 Complete Media • 3.1.1. 500 mL bottle of RPMI-1640 basal media containing phenol red • 3.1.2. Add 50 mL HI-FBS • 3.1.3. Add 5.5 mL of 200 mM L-Glutamine • 4. Procedure • 4.1. Remove one vial of A549 lung carcinoma cells from liquid nitrogen storage and after ensuring that the vial is tightly closed, rapidly thaw vial by holding all but the top of the vial submerged in a 37° C. water bath until the vial contents begins to thaw but while ice still remains. • 4.2. Liberally spray the vial with 70% ethanol, wipe with tissue, and place into a laminar flow hood. • 4.3. Transfer the contents of the vial to a 50 mL conical tube containing 9 mL RPMI-1640 complete medium containing phenol red (Step 3.1) (hereafter referred to as complete medium in this method). • 4.4. Centrifuge the tube in a swing bucket rotor set at 1200 RPM (220 RCF) for five minutes at room temperature. • 4.5. Discard supernatant and gently flick the tube to resuspend the cells in the residual volume left in the tube. • 4.6. Add 5 mL complete medium, transfer the cell solution to a 25 cm^2 flask, and then place the flask into a 37° C. incubator with 5% CO2. • 4.7. Monitor the flask daily and when the cells reach approximately 80% confluence, remove the media, and wash the cells by adding 2 mL DPBS to the flask. Ensure that all cells are rinsed and discard the DPBS. • 4.8. Add 1 mL 0.25% trypsin-EDTA to prewash the cells, tip flask to coat all cells, and discard the trypsin. • 4.9. […]

porfimer sodium [Photofrin®]
ratio of the standard to test sample EC50 (FIG. 12, standard preparation versus preparation containing half of the nominal activity): 0.5
EC50 STD (Standard sample (70 μg/mL high test drug concentration), A549 cells at passage P10): 10.5
EC50 STD (Standard sample (70 μg/mL high test drug concentration), A549 cells at passage P17): 10.1
EC50 STD (Standard sample (70 μg/mL high test drug concentration), Inter-operator Assay, AB-1): 6.37
EC50 STD (Standard sample (70 μg/mL high test drug concentration), Inter-operator Assay, AB-2): 8.23
EC50 STD, Mean (Standard sample (70 μg/mL high test drug concentration), Inter-operator Assay, mean of operator AB plates): 7.3 µg/mL
EC50 STD (Standard sample (70 μg/mL high test drug concentration), Photofrin® absorption time 3.5 hours): 10.4
EC50 STD (Standard sample (70 μg/mL high test drug concentration), absorption time 4.0 hours): 10.2
EC50 STD (Standard sample (70 μg/mL high test drug concentration), absorption time 4.5 hours): 9.23
EC50 STD (Standard sample (70 μg/mL high test drug concentration), irradiation time 8 minutes): 12.0
EC50 STD (Standard sample (70 μg/mL high test drug concentration), irradiation time 9 minutes): 12.0
EC50 STD (Standard sample (70 μg/mL high test drug concentration), irradiation time 10 minutes): 11.1
EC50 STD (Standard sample (70 μg/mL high test drug concentration), irradiation time 11 minutes): 11.6
EC50 STD (Standard sample (70 μg/mL high test drug concentration), irradiation time 12 minutes): 10.8
EC50 STD (Standard sample (70 μg/mL high test drug concentration), operator AB Pilot Assay-1): 6.62
EC50 STD (Standard sample (70 μg/mL high test drug concentration), operator AB Pilot Assay-2): 6.76
EC50 STD (Standard sample (70 μg/mL high test drug concentration), post-irradiation incubation time 22 hours): 9.16
EC50 STD (Standard sample (70 μg/mL high test drug concentration), post-irradiation incubation time 24 hours): 10.2
EC50 STD (Standard sample (70 μg/mL high test drug concentration), post-irradiation incubation time 26 hours): 9.55
EC50 STD (Standard sample (70 μg/mL high test drug concentration), post-irradiation temperature 35° C.): 9.68
EC50 STD (Standard sample (70 μg/mL high test drug concentration), post-irradiation temperature 37° C. (nominal, two experiments)): 10.8 and 9.9
EC50 STD (Standard sample (70 μg/mL high test drug concentration), post-irradiation temperature 39° C.): 8.32
Standard Sample EC50 (Standard sample, 70 μg/mL high test concentration, Plate 1 (placement Standard, Test; left to right dilution; controls in columns 9-11)): 11.1 µg/mL
Standard Sample EC50 (Standard sample, 70 μg/mL high test concentration, Plate 2 (placement Test, Standard; left to right dilution; controls in columns 9-11)): 10.7 µg/mL
Standard Sample EC50 (Standard sample, 70 μg/mL high test concentration, Plate 3 (right to left dilution; controls in columns 9-11)): 11.2 µg/mL
Standard Sample EC50 (Standard sample, 70 μg/mL high test concentration, Plate 4 (placement Standard, Test; left to right dilution; controls in columns 9-11)): 11 µg/mL
Standard Sample EC50 (Standard sample, 70 μg/mL high test concentration, Plate 5 (left to right dilution; controls in columns 2-4)): 10.8 µg/mL
Standard Sample EC50, Mean (Standard sample, 70 μg/mL high test concentration, mean across Plates 1-5 of positional analysis): 11 µg/mL
EC50 Test (A549 cells at passage P10, wide confidence interval due to poor curve fitting): 18.9**
EC50 Test (A549 cells at passage P17): 19.2
EC50 Test (Inter-operator Assay, AB-1): 13.7
EC50 Test (Inter-operator Assay, AB-2): 14.6
EC50 Test, Mean (Inter-operator Assay, mean of operator AB plates): 14.2 µg/mL
EC50 Test, Mean (Inter-operator Assay, mean of operator KP plates): 20 µg/mL
EC50 Test (Inter-operator Assay, operator KP, both plates KP-1): 20.1 and 19.8
EC50 Test (absorption time 3.5 hours): 19.5
EC50 Test (absorption time 4.0 hours): 20.1
EC50 Test (absorption time 4.5 hours): 16.1
EC50 Test (irradiation time 8 minutes): 24.5
EC50 Test (irradiation time 9 minutes): 25.2
EC50 Test (irradiation time 10 minutes): 22.8
EC50 Test (irradiation time 11 minutes): 20.9
EC50 Test (irradiation time 12 minutes): 21.0
EC50 Test (operator AB Pilot Assay-1): 16.1
EC50 Test (operator AB Pilot Assay-2): 12.6
EC50 Test (post-irradiation incubation time 22 hours): 16.7
EC50 Test (post-irradiation incubation time 24 hours): 18.9
EC50 Test (post-irradiation incubation time 26 hours): 16.6
EC50 Test (post-irradiation temperature 35° C.): 21.6
EC50 Test (post-irradiation temperature 37° C. (nominal, two experiments)): 19.9 and 20.0
EC50 Test (post-irradiation temperature 39° C.): 16.1
EC50 Test (seeding density 0.8 × 10^4 cells/well): 21.1
EC50 Test (seeding density 1.2 × 10^4 cells/well): 27.9
EC50 Test (seeding density 1.9 × 10^4 cells/well): 21.3
